Test results reported in patent publication US20200247855A1, “THERAPY AND DIAGNOSTICS” (OXFORD UNIVERSITY INNOVATION LIMITED, priority 2017, published 2020).
Values belong to the compound of their own block, whether it stands above or below them. Residues, ends and D or L forms follow the SMILES beside them. No end group written: not given here. *: point of attachment. FITC = O=C1OC2(c3ccc(O)cc3Oc3cc(O)ccc32)c2ccc(NC(=S)*)cc21

What was measured:
[1] = target: T1, CCL18 (Homo sapiens, UniProt P55774); test: Fluorescence polarisation (anisotropy) assay; type: binding; settings: labelled peptide 50 nM, chemokine 1 μM
T1 construct: purchased Peprotech
T1 sequence (P55774 21-89): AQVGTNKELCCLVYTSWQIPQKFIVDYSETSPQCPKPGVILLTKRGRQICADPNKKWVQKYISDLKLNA
Protocol: (§1) FIG. 14(B). Fluorescence polarisation assay showing binding of chemokines to P672_PEP-FITC. The measured fluorescence anisotropy (y-axis) of P672_PEP-FITC (50 nM) following binding to a fixed dose (1 μM)) of CCL7, CCL8, CCL18 and CXCL1 (negative control). […] Statistical significance was determined using one-way ANOVA with Sidak's correction for multiple comparisons using Graph Pad Prism 6. **=p<0.005, ****=P<0.00005, ns=not significant.
(§2) FIG. 15(C). Displacement of P672_PEP-FITC from CCL18 by P672_PEP. In each case 100 μM (++) or […] (+) of P672_PEP was incubated with P672_PEP-FITC (50 nM)/chemokine (1 μM CCL7 and CCL18; 500 nM CCL8) and the resulting anisotropy measured. A peptide with the P672_PEP sequence scrambled ([…]) served as a negative control (P672_PEP_SCRAM; […]). Experiment carried out in triplicate where each data point is the average of one experiment carried out in technical triplicate. Mean with SEM shown and statistical significance was determined using one-way ANOVA with Sidak's correction for multiple comparisons using Graph Pad Prism 6. *=p<0.05, ***=p<0.0005, ****=P<0.00005, ns=not significant.
(§3) Fluorescence polarization assays were performed using a Clariostar (BMG Tech) plate reader with the supplied FITC excitation and emission filters using 96 half area well plates (Corning). The buffer used (FP assay buffer) was 50 mM HEPES, 150 mM NaCl, 0.1% BSA, 0.002% TWEEN-20, 0.2% DMSO, pH 7.4 and the final volume in each well was 30 μL. Polarization was converted to anisotropy using the equation A=(2*P)/(3−P) where P is polarization and A is anisotropy. For each peptide tested the gain was set to 35 mP and adjusted to a well containing fluorescent peptide only. The polarization of the emitted light in the FITC emission channel was then determined. Experiments were performed as two technical and three biological replicates. Screening of P672 peptide fragments was achieved through incubation of each peptide (50 nM) with 1 μM CCL8 (Peprotech) for 30 minutes in FP assay buffer and the resulting anisotropy of the emitted light determined as above. The chemokine cross binding screen was performed by incubating 1 μM chemokine (Peprotech) with 50 nM BK1.1FITC for half an hour in FP assay buffer and the resulting anisotropy of the emitted light determined as above. To monitor BK1.1FITC Ala mutants of binding to CCL8, 50 nM labelled peptide was incubated with varying concentrations of recombinant CCL8 (0-25 μM, final) in 30 μL FP assay buffer for 30 minutes and the resulting anisotropy of the emitted light determined as above. The anisotropy was plotted as a function of CCL8 concentration and fitted to the equation: Y=Bmax*X/(KD+X)+NS*X+Background, where Y is the measured anisotropy, X is the concentration of CCL8 added, Bmax is the maximum binding, KD is the equilibrium dissociation constant, NS is the slope of the nonlinear regression and Background is the anisotropy when no CCL8 is present, in Graph Pad Prism. Displacement assays were carried out with CCL7, CCL8, and CCL18 (Peprotech, 1 μM). […] For all FP assays, the experiments were carried out as two technical and three biological replicates.

[2] = target: T2, CCL7 (Homo sapiens, UniProt P80098); test: Fluorescence polarisation (anisotropy) assay; type: binding; settings: labelled peptide 50 nM, chemokine 1 μM
T2 construct: purchased Peprotech
Protocol: as §1, §2, §3

[3] = target: T3, CXCL1 (Homo sapiens, UniProt P09341); test: Fluorescence polarisation (anisotropy) assay; type: binding; settings: labelled peptide 50 nM, chemokine 1 μM; negative control chemokine
T3 sequence (P09341 35-107): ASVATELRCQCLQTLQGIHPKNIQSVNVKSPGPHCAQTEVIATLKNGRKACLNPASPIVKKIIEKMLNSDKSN
Protocol: as §1
Fluorescence polarization assays were performed using a Clariostar (BMG Tech) plate reader with the supplied FITC excitation and emission filters using 96 half area well plates (Corning). The buffer used (FP assay buffer) was 50 mM HEPES, 150 mM NaCl, 0.1% BSA, 0.002% TWEEN-20, 0.2% DMSO, pH 7.4 and the final volume in each well was 30 μL. […] The polarization of the emitted light in the FITC emission channel was then determined. […] Screening of P672 peptide fragments was achieved through incubation of each peptide (50 nM) with 1 μM CCL8 (Peprotech) for 30 minutes in FP assay buffer and the resulting anisotropy of the emitted light determined as above. The chemokine cross binding screen was performed by incubating 1 μM chemokine (Peprotech) with 50 nM BK1.1FITC for half an hour in FP assay buffer and the resulting anisotropy of the emitted light determined as above. […]

[4] = target: T4, CCL8 (Homo sapiens, UniProt P80075); test: Fluorescence polarisation (anisotropy) assay; type: binding; settings: labelled peptide 50 nM, CCL8 1 μM
T4 construct: SUMO (in-house protein only) (cleaved yes); made in house; host or cells: Escherichia coli RosettaGami 2 (DE3)
T4 sequence (P80075 24-99): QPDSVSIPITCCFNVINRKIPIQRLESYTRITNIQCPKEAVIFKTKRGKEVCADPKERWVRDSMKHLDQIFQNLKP
Description: FIG. 14. Characterisation of P672_PEP-FITC by fluorescence polarisation. […] Residue C30 was mutated to A to avoid an unpaired cysteine residue. The residues corresponding to the above peptide are wholly contained within the CCL8-binding region of P672_RHIPU transferred in the hybrid evasin P672:EVA1 (SEQ ID 76, see FIG. 5). […] (SEQ ID NO: 90). FIG. 14(A). […] The curve was fitted to the two site-total and non-specific binding model in GraphPad Prism 6. Data are shown as mean and SEM of three independent experiments, with each independent experiment performed as three technical replicates. The affinity constant Kd was calculated in GraphPad Prism from the curve fit with the standard error reported.
as §1, with “Fluorescence polarisation assay showing binding of chemokines to P672_PEP-FITC.” left out
FIG. 15(C). […] In each case 100 μM (++) or […] (+) of P672_PEP was incubated with P672_PEP-FITC (50 nM)/chemokine (1 μM CCL7 and CCL18; 500 nM CCL8) and the resulting anisotropy measured. […] Experiment carried out in triplicate where each data point is the average of one experiment carried out in technical triplicate. Mean with SEM shown and statistical significance was determined using one-way ANOVA with Sidak's correction for multiple comparisons using Graph Pad Prism 6. *=p<0.05, ***=p<0.0005, ****=P<0.00005, ns=not significant.
as §3, with “To monitor BK1.1FITC Ala mutants of binding to CCL8, 50 nM labelled peptide was incubated with varying concentrations of recombinant CCL8 (0-25 μM, final) in 30 μL FP assay buffer for 30 minutes and the resulting anisotropy of the emitted light determined as above.” left out

[5] = test system: human CCL5 together with CXCL8, CXCL1, CCL3 or CCL2; test: Biolayer interferometry polyvalent binding (association with CCL5, then CCL5 plus second chemokine); settings: BLI, wavelength shift in association 2
Description: FIG. 10. Polyvalent binding of CC and CXC chemokines to two-warhead evasins. […] This was followed by association with CCL5+CXCL8 (light grey trace), or with CCL5+CXCL1 (dark grey trace) or CCL5+CCL3 (black trace) (association 2), and then dissociated in buffer (dissociation).
FIG. 11. Polyvalent binding of CC and CXC chemokines to two-warhead evasins. […] This was followed by association with CCL5+CXCL8 (light grey trace), or with CCL5+CXCL1 (dark grey trace) or CCL5+CCL2 (black trace) (association 2), and then dissociated in buffer (dissociation).
The ability of 2-warhead evasins to engage in polyvalent binding of CC and CXC chemokines was further determined.

[6] = target: T5, His-tagged P672-biotinylated CCL3 interaction (Homo sapiens, UniProt P10147); test: AlphaScreen disruption of P672:chemokine interaction; type: binding; settings: AlphaScreen, peptide 100 μM
T5 construct: host or cells: P672: HEK293F (in-house); biotinylated CCL3: not described
T5 sequence (P10147 24-92): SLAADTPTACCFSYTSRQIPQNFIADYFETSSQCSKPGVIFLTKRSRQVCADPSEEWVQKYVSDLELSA
Protocol: (§4) B-D. Effect of indicated peptides at a concentration of 100 μM on a His-tagged P672-biotinylated CCL8, CCL2 or CCL3 interaction respectively using an AlphaScreen assay. In each panel. […] Data are presented as mean±s.e.m. of three independent experiments, shown as individual data points.
(§5) Data are shown as mean of two technical replicates. Curves were fitted with 4 parameters to estimate IC50.
(§6) The binding of these peptides to CCL8 was assayed by examining their ability to disrupt the P672:CCL8 interaction using an AlphaScreen assay (FIG. 20E, H). […] BK1 derivatives were tested for their ability to inhibit P672 interactions with CCL2 and CCL3 using AlphaScreen (FIG. 20 F, G, I, J).
(§7) AlphaScreen® Histidine detection kit was purchased from PerkinElmer (6760619M lot: 2457886) and the assay was set up in white bottom Proxiplate™ 384 Plus microplates (PerkinElmer) following the manufacturer's instructions. The assay buffer used was 50 mM HEPES, 150 mM NaCl, 0.1% BSA, 0.01% Tween20, 1% DMSO, pH 7.5 and the final volume in each well was 20 μL. Briefly, biotinylated chemokine (recombinant, final concentration 1.25 nM (CCL8), 5 nM (CCL2) and 2.5 nM (CCL3)) was pre-incubated at room temperature for 15 min with different concentrations of each peptide. His-tagged P672 (final concentration 2.5 nM (CCL8), 5 nM (CCL2) and 1.25 nM (CCL3)) was then added to each well and the plate was incubated at room temperature for 30 min. Finally, acceptor and donor beads were added as a 1:1 suspension in buffer to each well and the plate was further incubated at RT for 1 h. Data was obtained by reading the plate using a Pherastar FSX plate reader (excitation 680 nm, emission 570 nm) and was analysed using GraphPad Prism.

[7] = target: T6, His-tagged P672-biotinylated CCL2 interaction (Homo sapiens, UniProt P13500); test: as above; type: binding; settings: AlphaScreen, peptide 100 μM
T6 construct: host or cells: P672: HEK293F (in-house); biotinylated CCL2: not described
Protocol: as §4, §5, §6, §7

[8] = target: T7, His-tagged P672-biotinylated CCL8 interaction (Homo sapiens, UniProt P80075); test: as above; type: binding; settings: peptide 100 μM
T7 construct: SUMO (cleaved yes); biotin (enzymatic, BirA co-expression); made in house; host or cells: CCL8: Escherichia coli RosettaGami 2 (DE3); P672: HEK293F
T7 sequence (P80075 24-99): T4 sequence (P80075 24-99)
Protocol: as §4, §5, §6, §7

T2 sequence (P80098 24-99): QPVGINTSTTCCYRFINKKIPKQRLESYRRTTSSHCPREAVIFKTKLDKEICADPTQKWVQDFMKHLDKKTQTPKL
T6 sequence (P13500 24-99): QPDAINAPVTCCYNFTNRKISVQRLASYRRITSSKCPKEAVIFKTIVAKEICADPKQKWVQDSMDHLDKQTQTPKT
human CCL5 together with CXCL8, CXCL1, CCL3 or CCL2, sequence (P13501 24-91): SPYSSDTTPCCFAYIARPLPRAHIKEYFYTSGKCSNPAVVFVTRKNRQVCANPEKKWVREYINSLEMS

Compound: CC(C)[C@H](NC(=O)[C@@H]1CCCN1C(=O)[C@H](CCCCN)NC(=O)[C@H](Cc1ccccc1)NC(=O)[C@H](Cc1ccccc1)NC(=O)[C@H](CC(=O)O)NC(=O)[C@H](CCC(=O)O)NC(=O)[C@H](Cc1ccc(O)cc1)NC(=O)[C@H](CC(=O)O)NC(=O)[C@H](CCC(=O)O)NC(=O)[C@H](CC(=O)O)NC(=O)[C@H](CCC(=O)O)NC(=S)Nc1ccc2c(c1)C(=O)OC21c2ccc(O)cc2Oc2cc(O)ccc21)C(=O)N[C@H](C(=O)N[C@@H](C)C(=O)N[C@@H](Cc1ccc(O)cc1)C(=O)N[C@@H](Cc1ccccc1)C(N)=O)[C@@H](C)O [BK1.1FITC] ({FITC}-EDEDYEDFFKPVTAYF-NH2)
Binding to CCL18 (change in anisotropy) [1]: significant increase in anisotropy
Binding to CCL18 (change in anisotropy) ([1]; listed as P672_PEP-FITC): able to bind
Binding to CCL7 (change in anisotropy) [2]: significant increase in anisotropy
Binding to CCL7 (change in anisotropy) ([2]; listed as P672_PEP-FITC): able to bind
Binding to CXCL1 (change in anisotropy) [3]: not
Binding to CCL8 (change in anisotropy) [4]: significant increase in anisotropy
Binding to CCL8 (change in anisotropy) ([4]; listed as BK1.1FTC): increase in anisotropy
Binding to CCL8 (change in anisotropy) ([4]; listed as P672_PEP-FITC): able to bind

Compound: P1243:P1156: two-warhead evasin: P1243_AMBAM linked via GGGGS linker to P1156_IXORI
Polyvalent (simultaneous) binding of CC and CXC chemokines [5]: can associate simultaneously with CCL5 and either CXCL8 or CXCL1

Disruption of the P672-CCL3 interaction [6]: disrupted
Disruption of the P672-CCL2 interaction [7]: disrupted
Disruption of the P672-CCL8 interaction [8]: significantly disrupt
Compound: Y21F32: shorter peptide Y21-F32 of P672 without the C30A mutation (YEDFFKPVTCYF-NH2)
